Results reported in ChEMBL document CHEMBL4354822, “Ligand-Based Design of Nondimethylphenyl-Diarylpyrimidines with Improved Metabolic Stability, Safety, and Oral Pharmacokinetic Profiles” (J Med Chem, 2019).

What was measured:
[1] = target: Human immunodeficiency virus type 1 reverse transcriptase (Human immunodeficiency virus 1) (UniProt Q72547); assay: Ratio of IC50 for nevirapine to IC50 for test compound for recombinant wild type HIV1 reverse transcriptase p66/p51
[2] = tested on: Human immunodeficiency virus 1; assay: Antiviral activity against HIV1 3B infected in human MT4 cells incubated assessed as reduction in virus-induced cytopathic effect for 5 days by MTT assay; format: functional, organism-based; conditions: Human immunodeficiency virus 1, 3B, MT4, 120 h
[3] = tested on: Human immunodeficiency virus 1; assay: Antiviral activity against HIV1 harboring reverse transcriptase Y181C mutant infected in human MT4 cells assessed as reduction in virus-induced cytopathic effect incubated for 5 days by MTT assay; format: functional, organism-based; conditions: Human immunodeficiency virus 1, MT4, 120 h
[4] = tested on: Human immunodeficiency virus 1; assay: Antiviral activity against HIV1 harboring reverse transcriptase Y188L mutant infected in human MT4 cells assessed as reduction in virus-induced cytopathic effect incubated for 5 days by MTT assay; format: functional, organism-based; conditions: Human immunodeficiency virus 1, MT4, 120 h
[5] = tested on: Human immunodeficiency virus 1; assay: Ratio of EC50 for efavirenz to EC50 for test compound for antiviral activity against HIV1 harboring reverse transcriptase L100I mutant infected in human MT4 cells assessed as reduction in virus-induced cytopathic effect incubated for 5 days by MTT assay; format: functional
[6] = Selectivity index, ratio of CC50 for human MT4 cells to EC50 for antiviral activity against HIV1 3B infected in human MT4 cells incubated for 5 days by MTT assay; format: toxicity, cell-based; conditions: MT4 cells (uninfected for CC50; HIV-1 3B infected for EC50)
[7] = tested on: Human immunodeficiency virus 1; assay: Antiviral activity against HIV1 harboring reverse transcriptase E138K mutant infected in human MT4 cells assessed as reduction in virus-induced cytopathic effect incubated for 5 days by MTT assay; format: functional, organism-based; conditions: Human immunodeficiency virus 1, MT4, 120 h
[8] = tested on: Human immunodeficiency virus 1; assay: Antiviral activity against HIV1 harboring reverse transcriptase K103N mutant infected in human MT4 cells assessed as reduction in virus-induced cytopathic effect incubated for 5 days by MTT assay; format: functional, organism-based; conditions: Human immunodeficiency virus 1, MT4, 120 h
[9] = tested on: Human immunodeficiency virus 1; assay: Antiviral activity against HIV1 harboring reverse transcriptase L100I mutant infected in human MT4 cells assessed as reduction in virus-induced cytopathic effect incubated for 5 days by MTT assay; format: functional, organism-based; conditions: Human immunodeficiency virus 1, MT4, 120 h
MT4 = assay: Cytotoxicity against human MT4 cells assessed as reduction in cell viability incubated for 5 days by MTT assay; format: functional; conditions: MT4, 120 h
[10] = tested on: Human immunodeficiency virus 1; assay: Ratio of EC50 for rilpivirine to EC50 for test compound for antiviral activity against HIV1 harboring reverse transcriptase L100I mutant infected in human MT4 cells assessed as reduction in virus-induced cytopathic effect incubated for 5 days by MTT assay; format: functional
[11] = target: Human immunodeficiency virus type 1 reverse transcriptase (Human immunodeficiency virus 1, UniProt Q72547); assay: Inhibition of recombinant wild type HIV1 reverse transcriptase p66/p51 incubated for 40 mins by picogreen dye-based spectrofluorometric analysis
[12] = tested on: Human immunodeficiency virus 1; assay: Ratio of EC50 for etravirine to EC50 for test compound for antiviral activity against HIV1 harboring reverse transcriptase L100I mutant infected in human MT4 cells assessed as reduction in virus-induced cytopathic effect incubated for 5 days by MTT assay; format: functional
[13] = Aqueous solubility of compound at 2 mg measured for 24 hrs by HPLC analysis; format: physicochemical; conditions: aqueous medium
[14] = Oral bioavailability in Sprague-Dawley rat at 1 mg/kg measured after 24 hrs by LCMS analysis; format: ADME, organism-based; conditions: in vivo
[15] = Acute toxicity in mouse assessed as change in behavior at 2 mg/kg, ig measured up to 14 days; format: organism-based; conditions: in vivo, po, 336 h
[16] = Oral bioavailability in Sprague-Dawley rat at 5 mg/kg measured after 24 hrs by LCMS analysis; format: ADME, organism-based; conditions: in vivo
[17] = AUCinfinity in Sprague-Dawley rat at 10 mg/kg, po via gavage administration measured after 24 hrs by LCMS analysis; format: ADME, organism-based; design: dose 10 mg/kg, time infinity, route oral; conditions: in vivo
[18] = MRTinfinity in Sprague-Dawley rat at 10 mg/kg, po via gavage administration measured after 24 hrs by LCMS analysis; format: ADME, organism-based; conditions: in vivo
[19] = Cmax in Sprague-Dawley rat at 10 mg/kg, po via gavage administration measured after 24 hrs by LCMS analysis; format: ADME, organism-based; design: dose 10 mg/kg, route oral; conditions: in vivo
[20] = Tmax in Sprague-Dawley rat at 10 mg/kg, po via gavage administration measured after 24 hrs by LCMS analysis; format: ADME, organism-based; conditions: in vivo
[21] = Metabolic stability in rat liver microsomes at 1 uM measured up to 45 mins in presence of NADPH by LC/MS/MS analysis; format: ADME, Microsome
[22] = Intrinsic clearance in human liver microsomes assessed per mg protein at 1 uM measured up to 45 mins in presence of NADPH by LC/MS/MS analysis; format: ADME, Microsome; conditions: read-out: CLH
[23] = MRTinfinity in Sprague-Dawley rat at 1 mg/kg, iv measured after 24 hrs by LCMS analysis; format: ADME, organism-based; conditions: in vivo
[24] = Metabolic stability in human liver microsomes at 1 uM measured up to 45 mins in presence of NADPH by LC/MS/MS analysis; format: ADME, Microsome
[25] = Half life in Sprague-Dawley rat at 5 mg/kg, po via gavage administration measured after 24 hrs by LCMS analysis; format: ADME, organism-based; conditions: in vivo
[26] = Cmax in Sprague-Dawley rat at 5 mg/kg, po via gavage administration measured after 24 hrs by LCMS analysis; format: ADME, organism-based; design: dose 5 mg/kg, route oral; conditions: in vivo
[27] = Acute toxicity in mouse assessed as change in lung at 2 mg/kg, ig measured up to 14 days by H and E staining based assay; format: organism-based; conditions: in vivo, po, 336 h
[28] = Acute toxicity in mouse assessed as mortality at 2 mg/kg, ig measured up to 14 days; format: organism-based; conditions: in vivo, po, 336 h
[29] = AUC in Sprague-Dawley rat at 10 mg/kg, po via gavage administration measured after 24 hrs by LCMS analysis; format: ADME, organism-based; design: dose 10 mg/kg, time < 24 hr, route oral; conditions: in vivo
[30] = MRTinfinity in Sprague-Dawley rat at 5 mg/kg, po via gavage administration measured after 24 hrs by LCMS analysis; format: ADME, organism-based; conditions: in vivo
[31] = Half life in Sprague-Dawley rat at 1 mg/kg, iv measured after 24 hrs by LCMS analysis; format: ADME, organism-based; conditions: in vivo
[32] = AUC in Sprague-Dawley rat at 5 mg/kg, po via gavage administration measured after 24 hrs by LCMS analysis; format: ADME, organism-based; design: time < 24 hr, dose 5 mg/kg, route oral; conditions: in vivo
[33] = Tmax in Sprague-Dawley rat at 5 mg/kg, po via gavage administration measured after 24 hrs by LCMS analysis; format: ADME, organism-based; conditions: in vivo
[34] = Acute toxicity in mouse assessed as change in liver at 2 mg/kg, ig measured up to 14 days by H and E staining based assay; format: organism-based; conditions: in vivo, po, 336 h
[35] = Acute toxicity in mouse assessed as change in heart at 2 mg/kg, ig measured up to 14 days by H and E staining based assay; format: organism-based; conditions: in vivo, po, 336 h
[36] = Acute toxicity in mouse assessed as change in kidney at 2 mg/kg, ig measured up to 14 days by H and E staining based assay; format: organism-based; conditions: in vivo, po, 336 h
[37] = Acute toxicity in mouse assessed as change in brain at 2 mg/kg, ig measured up to 14 days by H and E staining based assay; format: organism-based; conditions: in vivo, po, 336 h
[38] = AUCinfinity in Sprague-Dawley rat at 5 mg/kg, po via gavage administration measured after 24 hrs by LCMS analysis; format: ADME, organism-based; design: dose 5 mg/kg, route oral, time infinity; conditions: in vivo
[39] = AUC in Sprague-Dawley rat at 1 mg/kg, iv measured after 24 hrs by LCMS analysis; format: ADME, organism-based; design: time < 24 hr, dose 1 mg/kg, route intravenous; conditions: in vivo
[40] = Intrinsic clearance in rat liver microsomes assessed per mg protein at 1 uM measured up to 45 mins in presence of NADPH by LC/MS/MS analysis; format: ADME, Microsome; conditions: microsomes, 0.75 h, 1 µM
[41] = AUCinfinity in Sprague-Dawley rat at 1 mg/kg, iv measured after 24 hrs by LCMS analysis; format: ADME, organism-based; design: dose 1 mg/kg, route intravenous, time infinity; conditions: in vivo
[42] = Half life in Sprague-Dawley rat at 10 mg/kg, po via gavage administration measured after 24 hrs by LCMS analysis; format: ADME, organism-based; conditions: in vivo
[43] = Acute toxicity in mouse assessed as change in body weight at 2 mg/kg, ig measured up to 14 days; format: organism-based; conditions: in vivo, po, 336 h
[44] = Oral bioavailability in Sprague-Dawley rat at 10 mg/kg measured after 24 hrs by LCMS analysis; format: ADME, organism-based; conditions: in vivo

## Cc1cc(-c2ccc(C#N)cc2)cc(Cl)c1Oc1ccnc(Nc2ccc(C#N)cc2)n1
[1]
  Ratio IC50: 21 to 109
[2]
  EC50: 3.4 nM
[3]
  EC50: 10.5 nM
[4]
  EC50: 200 nM
[5]
  Ratio EC50: 2 - 568
[6]
  selectivity ratio at 120 h: > 86200
[7]
  EC50: 6.6 nM
[8]
  EC50: < 4.3 nM
[9]
  EC50: < 3.7 nM
MT4
  CC50: > 286000 nM
[10]
  Ratio EC50: 2 - 568
[11]
  IC50: 10.8 nM
[12]
  Ratio EC50: 2 - 568

## N#Cc1ccc(Nc2nccc(Nc3c(F)cc(-c4ccc(C#N)cc4)cc3F)n2)cc1.O=C(O)C(F)(F)F
[13]
  solubility at 24 h: 0.35 µg/mL

## N#Cc1ccc(Nc2nccc(Nc3c(F)cc(-c4ccc(C#N)cc4)cc3F)n2)cc1.O=S(=O)(O)O
[13]
  solubility at 24 h: 0.36 µg/mL

## N#Cc1ccc(Nc2nccc(Oc3c(F)cc(-c4ccc(C#N)cc4)cc3F)n2)cc1
[1]
  Ratio IC50: 21 to 109
[2]
  EC50: 3.3 nM
[3]
  EC50: 23.5 nM
[4]
  EC50: > 294000 nM
[6]
  selectivity ratio at 120 h: > 89300
[7]
  EC50: 5.2 nM
[8]
  EC50: 3.5 nM
[9]
  EC50: 17.2 nM
MT4
  CC50: > 294000 nM
[11]
  IC50: 13.2 nM

## Cc1cc(/C=C/C#N)cc(C)c1Nc1ccnc(Nc2ccc(C#N)cc2)n1.Cl [RILPIVIRINE HYDROCHLORIDE]
[14]
  bioavailability: 32%

## Cc1cc(-c2ccc(C#N)cc2F)ccc1Oc1ccnc(Nc2ccc(C#N)cc2)n1
[1]
  Ratio IC50: 21 to 109
[2]
  EC50: 10.7 nM
[3]
  EC50: 14.6 nM
[4]
  EC50: > 294000 nM
[6]
  selectivity ratio at 120 h: > 27500
[7]
  EC50: 4.9 nM
[8]
  EC50: 4.7 nM
[9]
  EC50: 13.2 nM
MT4
  CC50: > 297000 nM
[11]
  IC50: 8.7 nM

## N#Cc1ccc(Nc2nccc(Nc3c(F)cc(-c4ccc(C#N)cc4)cc3F)n2)cc1.O=CO
[13]
  solubility at 24 h: 0.35 µg/mL

## CC(=O)O.N#Cc1ccc(Nc2nccc(Nc3c(F)cc(-c4ccc(C#N)cc4)cc3F)n2)cc1
[13]
  solubility at 24 h: 0.34 µg/mL

## Cl.N#Cc1ccc(Nc2nccc(Nc3c(F)cc(-c4ccc(C#N)cc4)cc3F)n2)cc1
[15]
  Activity: Non-Toxic
[16]
  bioavailability: 44%
[17]
  AUC(0-inf): 12200 ng·h/mL
[18]
  MRT inf: 8.27 h
[19]
  Cmax: 1230 ng/mL
[20]
  Tmax: 6.67 h
[21]; liver microsomes
  k el at 0.75 h, 1 µM: 0.000262 s⁻¹
[21]; microsomes, 0.75 h, 1 µM
  t1/2: 0.738 h
[22]
  microsomal CLint at 1 µM: 21.9 µL/min/mg
[23]
  MRT inf: 4.69 h
[24]
  half-life at 1 µM: 0.527 h
  k el at 0.75 h, 1 µM: 0.000365 s⁻¹
[25]
  half-life: 3.23 h
[26]
  Cmax: 887 ng/mL
[27]
  Activity: Non-Toxic
[28]
  Activity: Non-Toxic
[29]
  AUC at 24 h: 12100 ng·h/mL
[30]
  MRT inf: 8.37 h
[31]
  half-life: 4.18 h
[32]
  AUC at 24 h: 7890 ng·h/mL
[33]
  Tmax: 5.33 h
[34]
  Activity: Non-Toxic
[35]
  Activity: Non-Toxic
[36]
  Activity: Non-Toxic
[37]
  Activity: Non-Toxic
[38]
  AUC(0-inf): 8000 ng·h/mL
[39]
  AUC at 24 h: 3560 ng·h/mL
[40]
  CLH: 44.3 µL/min/mg
[41]
  AUC(0-inf): 3640 ng·h/mL
[42]
  half-life: 3.18 h
[43]
  Activity: Non-Toxic
[44]
  bioavailability: 33.6%
[13]
  solubility at 24 h: 5.6 µg/mL

## N#Cc1ccc(Nc2nccc(Oc3ccc(-c4ccc(C#N)cc4)cc3F)n2)cc1
[1]
  Ratio IC50: 21 to 109
[2]
  EC50: 1.8 nM
[3]
  EC50: 49.1 nM
[4]
  EC50: > 307000 nM
[6]
  selectivity ratio at 120 h: > 172000
[7]
  EC50: 6.4 nM
[8]
  EC50: 12.3 nM
[9]
  EC50: 63.9 nM
MT4
  CC50: > 307000 nM
[11]
  IC50: < 3.7 nM
